In patent US5028411A, “Pharmaceutical compositions” (priority 1984, dated 1991):
Where two headings read alike, the source gives them in different places. Values belong to the molecule of their own block, whether it stands above or below them.

Assays:
rat jejunal sac [1] = assay: In vitro permeation of rat jejunal sac by iron complexes
Experimental: Rats (male Sprague Dawley, 60 g) were killed and the jejunum removed, everted and cut into three segments (4 cm length). The segments were tied at both ends, filled with Krebs Ringer buffer (0.2 ml) and incubated in Krebs Ringer buffer containing the appropriate ^59 Fe compound at 37° C. for periods up to 90 minutes. The contents of the sac were counted for ^59 Fe and measured spectrophotometrically.

[2] = In vivo cat, duodenal: 59Fe blood level and tissue distribution
Experimental: (§1) Cats were anaesthetised with chloralase (60 mg/kg) and pentobarbitone sodium (60 mg/kg) (i.p.), having been kept free of food for 18 hours. In each animal the trachea was cannulated to maintain a clear airway and to allow positive pressure artificial respiration if necessary. The left femoral vien was cannulated for the intravenous administration of drugs and physiological saline solution. Arterial blood pressure was monitored by a Washington pressure transducer through a cannula inserted into the femoral artery of the right hind leg. Arterial blood samples were taken at appropriate intervals from a short cannula inserted into an external carotid artery. Body temperature was monitored with a rectal thermometer. Each animal was given heparin (1000 iu/kg) as anticoagulant and additional small amounts of pentabarbitone sodium if needed to maintain a satisfactory level of anaesthesia.
In those animals where the iron compounds were to be administered into the duodenum, a mid-line incision was made in the abdomen to reveal the intestines. A cannula was then inserted through a small cut such that its tip rested approximately 5 cm below the opening of the bile duct. The cannula was then sutured in place and the abdominal wall closed with stitches.
The distribution of ^59 Fe in the tissues of the animal after the same duodenal experiment to which FIG. 7 relates were investigated and the typical results are shown in Table 7. The amount of ^59 Fe administered in this experiment was 10 μCi or 5.327×10^6 cpm into a 2.9 kg cat. It will be seen that the distribution of the ^59 Fe after 4 hours was similar to that after intravenous infusion, with low levels in the kidney and urine and high levels in both the spleen and bone marrow.
The distribution of ^59 Fe in the tissues of the animal after the same duodenal experiment were investigated and the typical results are shown in Table 8. The amount of ^59 Fe administered in this experiment was 10 μCi or 2.65×10^6 cpm into a 2.9 kg cat. It will be seen that, although some ^59 Fe entered the tissues, rather low levels were detected in the spleen and bone marrow (sternum) whereas a large proportion of the dose was located in the urine.

[3] = In vivo test of action of iron compounds in the rat (59Fe into duodenum)
Experimental: Groups of rats (300-350 g) were anaesthetised with nembutal (0.25 ml) and then with ether. A mid-line incision was made and the ^59 Fe labelled sample (100 μg Fe, 10 μCi) was passed into the lumen of the duodenum via a small incision. The abdominal well was then closed with a suture. The animals were sacrificed 1, 2, 4 and 6 hours after the administration of the compound and the various organs were monitored for their ^59 Fe content. […] In the case of the data for blood and sternum (bone marrow) the counts given are cpm/ml and cpm/g respectively, whilst in all other cases they are the total cpm counts.

[4] = type: in vivo, cat
Experimental: as §1
The apparent volume of distribution of the compound was calculated by extrapolation of the log-linear blood concentration curve to zero.
The amount of ^59 Fe administered in this experiment was 4 μCi of 2.2×10^6 cpm.

[5] = Text: (§2) In order to solubilise iron(III) hydroxide, log Ksol must be greater than 0.
[6] = tested on: bovine serum albumen (BSA); assay: Binding to bovine serum albumen (BSA); conditions: column procedure as for haemoglobin
[7] = remark: listed apart in the source
Experimental: An indication of the properties of a compound in this respect is provided by the value of the partition coefficient (Kpart) obtained on partition between n-octanol and Tris hydrochloride (20 mM, pH 7.4; Tris representing 2-amino-2-hydroxymethylpropane 1,3-diol) at 20° C. and expressed as the ratio (concentration of compound in organic phase)/(concentration of compound in aqueous phase).
Acid washed glassware is used throughout and, following mixing for 1 minute, the aqueous/n-octanol mixture is centrifuged at 1000 g for 30 seconds. The two resulting phases are separated for a concentration determination by spectrophotometry on each.

haemoglobin = assay: Binding to haemoglobin by gel permeation elution profile of 59Fe; conditions: 1 mM complex, NaCl 130 mM, pH 7.4, PD-10 column
apotransferrin = assay: Exchange of iron(III) between complex and apotransferrin
Text: as §2

rat jejunal sac [8] = type: in vitro ADME, rat (male Sprague Dawley)
Text: The procedure described above was used to compare the uptake of iron from buffer containing differing molar proportions of maltol:iron.

erythrocyte ghosts = type: binding, human
Text: Experiments to determine the percentage of ^59 Fe associated with erthrocyte ghosts after lysis confirm this hypothesis. In one experiment, lysis was initiated by a small volume of 10% v/v Triton X100 and in a second experiment by a 10 fold excess of water. […] Such binding is of course undesirable as the complex is likely to remain tightly bound to the membrane by electrostatic interactions and not be transmitted across it.

human erythrocytes = type: in vitro ADME; conditions: not told
Experimental: Following this period of incubation an aliquot of the erythrocyte/medium mixture was placed above a layer of silicone oil (.rho.=1.06) and the erythrocytes separated by centrifugation through the oil. The ^59 Fe levels associated with the erythrocytes and the incubation medium were then counted and presented as a distribution ratio (concentration in erythrocytes/concentration in medium).

[9] = Affinity of maltol for copper (II), zinc (II), calcium and magnesium; type: physicochemical; conditions: compared with iron
Text: as §2

[10] = Metabolism of free hydroxypyrone
[11] = relative to ferric chloride as 1, 37° C.
[12] = iron EDTA duodenal, 2.65×10^6 cpm
[13] = n-octanol/tris hcl, 100 µM, pH 7.4

Molecule: [Cl][Fe]([Cl])[Cl] [FeCl3, ferric chloride]
Relative iron uptake, 15 minutes (rat jejunal sac [1]; [11]): 1
Relative iron uptake, 60 minutes (rat jejunal sac [1]; [11]): 1

Molecule: O=C([O-])CCC(=O)[O-].[Fe+2] [Fe^II succinate]
Relative iron uptake, 15 minutes (rat jejunal sac [1]): 2.0
Relative iron uptake, 60 minutes (rat jejunal sac [1]): 1.0

Molecule: O=C([O-])CN(CCN(CC(=O)[O-])CC(=O)[O-])CC(=O)[O-].[Fe+3] [Iron EDTA]
plasma levels of radioactivity ([2]; duodenal): hardly exceeded the background level
Net 59Fe content, Heart [2, 12]: 188 cpm/g
Net 59Fe content, Kidney [2, 12]: 1,762 cpm/g
Net 59Fe content, Liver [2, 12]: 499 cpm/g
Net 59Fe content, Skeletal muscle [2, 12]: 117 cpm/g
Net 59Fe content, Spleen [2, 12]: 200 cpm/g
Net 59Fe content, Sternum (bone marrow) [2, 12]: 917 cpm/g
Net 59Fe content, Urine [2, 12]: 36,306 cpm/g
Net total 59Fe content, Heart [2, 12]: 2,878 cpm
Net total 59Fe content, Kidney [2, 12]: 19,913 cpm
Net total 59Fe content, Liver [2, 12]: 29,574 cpm
Net total 59Fe content, Spleen [2, 12]: 880 cpm
Net total 59Fe content, Urine [2, 12]: 544,596 cpm
59Fe levels in the intestine wall and blood ([3]; 100 μg Fe): extremely low
iron transfer to / 59Fe levels in bone marrow and spleen ([3]; 100 μg Fe, compared with maltol complex): reduced rates
59Fe in gut washings ([3]; 100 μg Fe, non-absorbed iron): remain high for 4 hours
dose located in the urine ([4]; cat, in vivo, iv): over 50%
rate constant of the elimination from the blood of the linear phase ([4]; cat, in vivo, iv): 0.023 min⁻¹
Net 59Fe content, Heart ([4]; in vivo, iv): 209 cpm/g
Net 59Fe content, Kidney ([4]; in vivo, iv): 1,134 cpm/g
Net 59Fe content, Liver ([4]; in vivo, iv): 261 cpm/g
Net 59Fe content, Spleen ([4]; in vivo, iv): 162 cpm/g
Net 59Fe content, Sternum (bone marrow) ([4]; in vivo, iv): 1,164 cpm/g
Net 59Fe content, Urine ([4]; in vivo, iv): 62,156 cpm/g
Net total 59Fe content, Heart ([4]; in vivo, iv): 3,248 cpm
Net total 59Fe content, Kidney ([4]; in vivo, iv): 21,770 cpm
Net total 59Fe content, Liver ([4]; in vivo, iv): 19,600 cpm
Net total 59Fe content, Spleen ([4]; in vivo, iv): 1,814 cpm
Net total 59Fe content, Urine ([4]; in vivo, iv): 1,180,900 cpm
kinetics of loss of radioactivity from blood ([4]; in vivo, iv): at least a two-component process
Net 59Fe content, Skeletal muscle ([4]; iron EDTA i.v., adjusted to 2.2×10^6 cpm): 95 cpm/g

Molecule: Cc1occc(=O)c1[O-].Cc1occc(=O)c1[O-].Cc1occc(=O)c1[O-].[Fe+3] [Iron maltol]
thermodynamic stability constant [5]: 30
binding to bovine serum albumen [6]: little ability to bind to BSA
partition coefficient Kpart (concentration in n-octanol/concentration in aqueous phase) [7, 13]: 0.50
Relative iron uptake, 15 minutes (rat jejunal sac [1]): 40
Relative iron uptake, 60 minutes (rat jejunal sac [1]): 5.8
concentration range over which uptake increased linearly (rat jejunal sac [1]): 500 to 10000 µM
period over which uptake was linear (rat jejunal sac [1]): 90 min
binding to haemoglobin (haemoglobin): no evidence is found for binding
lability of the complex (apotransferrin): extremely labile
Iron uptake into serosal contents of the sac (rat jejunal sac [8]): 30.0 n mole
proportion of total iron present as 3:1 complex (rat jejunal sac [8]; at 2:1 ratio of maltol:iron): 13%
Iron associated with ghosts, Hypotonic lysis (erythrocyte ghosts): < 5%
Iron associated with ghosts, Triton lysis (erythrocyte ghosts): < 1%
59Fe directed to the bone marrow ([4]; cat, in vivo, iv): approximately 90%
dose located in combined tissue of heart, liver and spleen ([4]; cat, in vivo, iv): approximately 10%
dose located in the urine ([4]; cat, in vivo, iv): less than 0.2%
Net 59Fe content, Heart ([4]; in vivo, iv): 490 cpm/g
Net 59Fe content, Kidney ([4]; in vivo, iv): 546 cpm/g
Net 59Fe content, Liver ([4]; in vivo, iv): 510 cpm/g
Net 59Fe content, Skeletal muscle ([4]; in vivo, iv): 0 cpm/g
Net 59Fe content, Spleen ([4]; in vivo, iv): 14,890 cpm/g
Net 59Fe content, Sternum (bone marrow) ([4]; in vivo, iv): 3,200 cpm/g
Net 59Fe content, Urine ([4]; in vivo, iv): 152 cpm/g
Net total 59Fe content, Heart ([4]; in vivo, iv): 7,056 cpm
Net total 59Fe content, Kidney ([4]; in vivo, iv): 6,661 cpm
Net total 59Fe content, Liver ([4]; in vivo, iv): 53,550 cpm
Net total 59Fe content, Skeletal muscle ([4]; in vivo, iv): 0 cpm
Net total 59Fe content, Spleen ([4]; in vivo, iv): 125,076 cpm
Net total 59Fe content, Urine ([4]; in vivo, iv): < 3,000 cpm
apparent volume of distribution ([4]; in vivo, iv): a value between that of the total extracellular space of the animal and the blood volume
time for erythrocyte uptake to reach equilibrium (human erythrocytes): about 15 minutes

Molecule: Cc1occc(=O)c1O [maltol, 3-hydroxy-2-methyl-4-pyrone]
affinity for copper (II), zinc (II), calcium and magnesium [9]: lower affinity
affinity for iron (log β3) [5]: 30
partition coefficient Kpart (concentration in n-octanol/concentration in aqueous phase) ([7]; n-octanol/Tris hydrochloride 20 mM, pH 7.4, 10^-4 M, spectrophotometry): 0.66
deposition of iron in the bone marrow over time ([3]; 6 hour period): continuously throughout the 6 hour period at an apparently constant rate
metabolism [10]: rapidly metabolized

Continued, values first:

Relative iron uptake, 15 minutes (rat jejunal sac [1]): 4.0
Relative iron uptake, 60 minutes (rat jejunal sac [1]): 1.8
Molecule: O=C([O-])/C=C/C(=O)[O-].[Fe+2] [Fe^II fumarate]

Relative iron uptake, 15 minutes (rat jejunal sac [1]): 2.4
Relative iron uptake, 60 minutes (rat jejunal sac [1]): 1.4
Molecule: O=S(=O)([O-])[O-].[Fe+2] [Fe^II sulphate, iron(II) sulphate]

Relative iron uptake, 15 minutes (rat jejunal sac [1]): 2.0
Relative iron uptake, 60 minutes (rat jejunal sac [1]): 1.8
Molecule: O=C([O-])CC(O)(CC(=O)[O-])C(=O)[O-].[Fe+3] [Fe^III citrate]

Relative iron uptake, 15 minutes (rat jejunal sac [1]): 1.6
Relative iron uptake, 60 minutes (rat jejunal sac [1]): 0.8
Molecule: iron(II) gluconate [Fe^II gluconate]

partition coefficient Kpart (concentration in n-octanol/concentration in aqueous phase) [7, 13]: 0.0015
Relative iron uptake, 15 minutes (rat jejunal sac [1]): 0.4
Relative iron uptake, 60 minutes (rat jejunal sac [1]): 0.8
Molecule: iron(III) ascorbate [Fe^III ascorbate]
